The term inhibition denotes how much of the control response was suppressed.

The structures appear in SMILES notation. pIC50: −log10 of the molar value. “Also recorded” adds a separate entry of the source.

The source of these data is article PMC7738283, “Discovery of orally active chalcones as histone lysine specific demethylase 1 inhibitors for the treatment of leukaemia” (Journal of Enzyme Inhibition and Medicinal Chemistry, 2020).

One data set has as its system P30-OHK cells. The data set can be described thus: MTT cell viability assay, P30-OHK. In kind it is cell-based. As to conditions: Homo sapiens, P30-OHK leukaemia cells, read-out: IC50 cell proliferation P30-OHK.
The subject of a further data set is KE-37 cells. The data set can be described thus: MTT cell viability assay, KE-37. In kind it is cell-based. As to conditions: Homo sapiens, KE-37 leukaemia cells, read-out: IC50 cell proliferation KE-37. On the technique in general: Formazan colour is commonly taken as a measure of viable cells.
A further data set concerns HAL-01 cells. The data set can be described thus: MTT cell viability assay, HAL-01. To be noted: Homo sapiens, HAL-01 leukaemia cells, read-out: IC50 cell proliferation HAL-01. In kind it is cell-based.
The subject of another data set is MOLT-4 cells. Kind of data set: MTT cell viability assay, MOLT-4. In kind it is cell-based, human.
The subject of another data set is LC4-1 cells. Kind of data set: MTT cell viability assay, LC4-1. As to conditions: Homo sapiens, LC4-1 leukaemia cells, read-out: IC50 cell proliferation LC4-1. Format: cell-based.
Another data set has as its system SUP-B15 cells. Kind of data set: MTT cell viability assay, SUP-B15. Format: cell-based. As to conditions: Homo sapiens, SUP-B15 leukaemia cells, read-out: IC50 cell proliferation SUP-B15.
Another data set has as its target T1, MAO-A (Homo sapiens, UniProt P21397).
T1 construct: purchased Active Motif 31502
T1 sequence (P21397 1-527): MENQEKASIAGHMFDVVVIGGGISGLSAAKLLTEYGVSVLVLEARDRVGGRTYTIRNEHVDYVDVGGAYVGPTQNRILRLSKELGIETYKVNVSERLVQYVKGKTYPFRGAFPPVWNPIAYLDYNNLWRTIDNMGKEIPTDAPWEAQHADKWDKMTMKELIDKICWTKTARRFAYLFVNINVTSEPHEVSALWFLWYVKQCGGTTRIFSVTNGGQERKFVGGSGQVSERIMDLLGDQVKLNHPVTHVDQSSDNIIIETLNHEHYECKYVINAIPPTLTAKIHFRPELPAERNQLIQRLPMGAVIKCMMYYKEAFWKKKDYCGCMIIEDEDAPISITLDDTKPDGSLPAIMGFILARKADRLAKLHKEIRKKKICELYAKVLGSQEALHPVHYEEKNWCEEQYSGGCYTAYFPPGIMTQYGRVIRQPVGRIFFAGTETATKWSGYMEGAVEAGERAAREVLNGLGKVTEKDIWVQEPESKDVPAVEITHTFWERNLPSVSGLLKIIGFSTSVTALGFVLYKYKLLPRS
The data set can be described thus: MAO-A inhibition assay (MAO-Glo kit). Format: biochemical. As for the experimental part:
(§1) The inhibition of LSD1 activity was evaluated according to reported references. pET-28b-LSD1 (full length) was transfected into BL21 (DE). Then, the protein was induced with 0.25 mmol/L IPTG following sonication and purified with Ni-NTA (Qiagen, Tubingen, Germany), Resource Q (GE, Pittsburgh, PA, USA) and Sephacryl S-200 HR (GE, Pittsburgh, PA, USA). The fluorescence intensity was read using EnVision Plate Reader (PerkinElmer, Waltham, MA, USA) to calculate the inhibition rate. The MAO-A and MAO-B were purchased from Active Motif (Cat#31502, Cat#31503, Carlsbad, CA, USA). Biochemical Kits were purchased from Promega (MAO-Glo Assay, Madison, WI, USA). The inhibitory activities of MAO-A and MAO-B were obtained according to the reported reference. The inhibitory activities of CDK1 and CDK2 were obtained according to the reported reference.

Another data set relates to MOLT-4 xenograft. The data set can be described thus: MOLT-4 xenograft study. In kind it is in vivo. To be noted: 60 mg/kg and 100 mg/kg, intragastric, 21 days. As for the experimental part: Animals were treated according to the protocols established by the ethics committee of Shengjing Hospital of China Medical University and the in vivo experiments were carried out in accordance with the approved guidelines and approved by the ethics committee of Shengjing Hospital of China Medical University. BALB/c nude mice were purchased from Hunan Slack Scene of Laboratory Animal Co., Ltd. (Hunan, China). Xenograft models using human leukaemia cells, MOLT-4, were established in BALB/c mice. Then, mice were separated into vehicle group and treatment groups (60 mg/kg and 100 mg/kg). The treatment groups received compound D6 by intragastric administration for a period of 21 days.

Another data set deals with CDK2 (Homo sapiens, UniProt P24941). The data set can be described thus: CDK2 enzyme assay. Format: biochemical. To be noted: 400 nM; read-out: inhibition rate CDK2.
For data set [1], the system named is 22RV1 (prostate cancer cells). Kind of data set: MTT cell viability assay, 22RV1. Format: cell-based. As to conditions: 4, 8, 16 μM; 48 h and 72 h. As for the experimental part: (§2) Cancer cell lines (Hela, 22RV1, Caco-2, BEL-7402, MOLT-4, OVCAR-3, HCT-8, HIC, IMR-32, HAL-01, KE-37, P30-OHK, SUP-B15 and LC4-1) were maintained in RPMI 1640 medium (Hyclone, Los Angeles, CA, USA) with 10% foetal bovine serum (Hyclone, Los Angeles, USA) and 1% penicillin-streptomycin (Hyclone, Los Angeles, USA) in a humidified atmosphere of 5% CO2 and 95% air at 37 °C. All cell lines were purchased from the China Centre for Type Culture Collection (CCTCC, China). Control containing sequence specific for LSD1 ([…]) was described. The shRNA constructs were transfected into MOLT-4 cells using the Lonza Group nucleofector technology in accordance with the manufacturer’s instructions. MOLT-4&shLSD1 cells and MOLT-4&shControl cells were also established and cultured according to the published references. After the incubation for 24 h, cancer cell lines were cultured with the chalcone D6 at different concentrations. Then, 20 μL of MTT (3–(4,5-dimethylthiazol-2-yl)-2,5-diphenyltetrazolium bromide) solution (5 mg/ml) was added and the cells were incubated for 4 h. The absorbance was measured using a microplate reader (DeTie Technology Co., Ltd, NanJing, China).

Data set [2] relates to H3K9me1 and H3K9me2 in MOLT-4 cells. Kind of data set: Western blotting of LSD1 substrates H3K9me1/2 in MOLT-4 cells. In kind it is cell-based, human. To be noted: western blot. For orientation: Immunoblotting shows a protein as a band on a membrane.
Procedure: Western blot was performed with the total lysates using RIPA buffer (Hyclone, Los Angeles, CA, USA). Same amounts of protein were subjected to SDS-PAGE, and then transferred to nitrocellulose membranes (PALL, Cortland, NY, USA). After blocking with 5% milk solution, the membranes were incubated at 4 °C with respective antibody overnight, followed by the incubation with a secondary antibody. Finally, the blot was visualised by enhanced chemiluminescence kit (Thermo Fisher, Waltham, MA, USA).
Data set [3] has as its system Caco-2 (colon cancer cells). Kind of data set: MTT cell viability assay, Caco-2. Format: cell-based. As to conditions: 4, 8, 16 μM; 48 h and 72 h. The protocol: as §2
Another data set has as its target CDK1 (Homo sapiens, UniProt P06493). Kind of data set: CDK1 enzyme assay. Format: biochemical. As to conditions: 400 nM; read-out: inhibition rate CDK1.
The next data set addresses T2, MAO-B (Homo sapiens, UniProt P27338).
T2 construct: purchased Active Motif 31503
T2 sequence (P27338 1-520): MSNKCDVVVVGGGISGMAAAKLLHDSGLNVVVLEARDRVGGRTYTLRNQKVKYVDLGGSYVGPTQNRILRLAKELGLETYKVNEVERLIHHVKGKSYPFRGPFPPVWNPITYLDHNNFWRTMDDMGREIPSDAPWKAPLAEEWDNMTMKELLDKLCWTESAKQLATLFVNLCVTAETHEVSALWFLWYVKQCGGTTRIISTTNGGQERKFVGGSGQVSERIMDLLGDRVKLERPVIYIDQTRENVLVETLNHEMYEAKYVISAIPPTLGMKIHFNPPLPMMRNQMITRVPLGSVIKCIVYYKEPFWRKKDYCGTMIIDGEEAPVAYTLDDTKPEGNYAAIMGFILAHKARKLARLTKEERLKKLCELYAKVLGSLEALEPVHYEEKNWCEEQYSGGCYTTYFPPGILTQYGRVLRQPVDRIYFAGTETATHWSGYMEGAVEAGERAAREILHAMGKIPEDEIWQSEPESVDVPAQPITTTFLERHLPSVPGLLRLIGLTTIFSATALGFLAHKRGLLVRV
The data set can be described thus: MAO-B inhibition assay (MAO-Glo kit). Format: biochemical. The protocol: as §1

In data set [4] the test system is IMR-32 (neuroblastoma cells). Kind of data set: MTT cell viability assay, IMR-32. Format: cell-based. To be noted: 4, 8, 16 μM; 48 h and 72 h. As for the experimental part:
as §2

Chain of CDK1 (P06493 whole entry, species assumed): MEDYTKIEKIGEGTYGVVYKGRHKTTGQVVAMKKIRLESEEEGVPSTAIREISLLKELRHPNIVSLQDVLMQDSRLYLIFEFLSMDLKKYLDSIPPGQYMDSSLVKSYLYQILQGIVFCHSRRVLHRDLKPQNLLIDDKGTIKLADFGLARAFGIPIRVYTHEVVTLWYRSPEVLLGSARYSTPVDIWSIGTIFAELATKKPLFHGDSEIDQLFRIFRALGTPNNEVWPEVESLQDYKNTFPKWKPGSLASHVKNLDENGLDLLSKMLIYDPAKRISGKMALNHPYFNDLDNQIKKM
Chain of CDK1 (P14635 whole entry partner, species assumed): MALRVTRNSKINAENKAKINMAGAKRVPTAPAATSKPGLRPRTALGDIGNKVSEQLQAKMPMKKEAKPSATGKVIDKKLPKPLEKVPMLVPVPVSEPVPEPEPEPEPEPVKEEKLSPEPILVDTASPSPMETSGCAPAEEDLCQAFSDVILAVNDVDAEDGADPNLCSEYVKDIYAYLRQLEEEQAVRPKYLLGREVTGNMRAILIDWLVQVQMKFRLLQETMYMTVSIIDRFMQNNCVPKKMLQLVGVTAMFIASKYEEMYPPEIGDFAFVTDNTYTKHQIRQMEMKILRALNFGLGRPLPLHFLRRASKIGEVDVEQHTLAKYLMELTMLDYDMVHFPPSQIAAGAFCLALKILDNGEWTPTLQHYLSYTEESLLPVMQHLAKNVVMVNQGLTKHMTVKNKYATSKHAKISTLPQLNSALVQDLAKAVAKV
Procedure for CDK1: (§3) The inhibition of LSD1 activity was evaluated according to reported references [23, 24]. pET-28b-LSD1 (full length) was transfected into BL21 (DE). Then, the protein was induced with 0.25 mmol/L IPTG following sonication and purified with Ni-NTA (Qiagen, Tubingen, Germany), Resource Q (GE, Pittsburgh, PA, USA) and Sephacryl S-200 HR (GE, Pittsburgh, PA, USA). The fluorescence intensity was read using EnVision Plate Reader (PerkinElmer, Waltham, MA, USA) to calculate the inhibition rate. […] The inhibitory activities of CDK1 and CDK2 were obtained according to the reported reference [26].
Procedure for CDK2: as §3
Procedure for HAL-01 cells: (§4) All cell lines were purchased from the China Centre for Type Culture Collection (CCTCC, China). […] Then, 20 μL of MTT (3–(4,5-dimethylthiazol-2-yl)-2,5-diphenyltetrazolium bromide) solution (5 mg/ml) was added and the cells were incubated for 4 h. The absorbance was measured using a microplate reader (DeTie Technology Co., Ltd, NanJing, China).
Procedure for KE-37 cells: as §4
Procedure for LC4-1 cells: as §4
Procedure for P30-OHK cells: as §4
Procedure for SUP-B15 cells: as §4

Regarding `O=c1[nH]cc(F)c(=O)[nH]1` [5-Fluorouracil], the pIC50 with P30-OHK cells was 5.38; with KE-37 cells it was 5.40; in the data set on HAL-01 cells, 5.29; in the data set on MOLT-4 cells (Homo sapiens, MOLT-4 leukaemia cells, MTT, read-out: IC50 cell proliferation MOLT-4), 5.54; in the data set on LC4-1 cells, 4.99; in the data set on SUP-B15 cells it was 5.68.

Consider `CC(C)(C)OC(=O)N1CCN(C(=S)SCC(=O)Nc2ccc(C(=O)/C=C/c3ccccc3F)cc2)CC1` [D6, Tert-butyl-(E)-4-(((2-((4–(3-(2-fluorophenyl)acryloyl)phenyl)amino)-2-oxoethyl)thio)carbonothioyl)piperazine-1-carboxylate], for which the inhibition at 0.4 µM stood at 16.3% at MAO-A (400 nM, read-out: inhibition rate MAO-A); 19% at CDK2; 16.3% at CDK1; 17.7% on MAO-B (400 nM, read-out: inhibition rate MAO-B). Further, the pIC50 against MAO-A (in vitro) is less than 4.70; on MAO-B (in vitro, MAO-AB [sic]), less than 4.70. Further, the “body weight of mice” value in the data set with MOLT-4 xenograft is “almost unchanged”. The “global toxicity in xenograft model” value in the data set on MOLT-4 xenograft is given as “low global toxicity; also recorded: without apparent toxicity”. Moreover, the “tumour growth (tumour volume, tumour weight)” value in the data set on MOLT-4 xenograft is recorded as “significantly suppressed MOLT-4 xenograft tumour growth; also recorded: inhibited tumour growth remarkably; also recorded: inhibited in vivo tumour growth”. The “antiproliferative effects (cell viability) 22RV1” value in data set [1] was “potential antiproliferative effects”. Further, the “amount of H3K9me1 and H3K9me2” value in data set [2] is “induce the accumulation of H3K9me1/2; also recorded: concentration dependent accumulation; also recorded: up-regulated the expression levels of H3K9me1 and H3K9me2”. Also, the “expression level of LSD1” value in data set [2] is on record as “did not affect”. Moreover, in data set [3], the “antiproliferative effects (cell viability) Caco-2” value is “potential antiproliferative effects”. For the same molecule, the “antiproliferative effects (cell viability) MOLT-4” value with MOLT-4 cells (4, 8, 16 μM, 48 h and 72 h) was “potential antiproliferative effects”. Besides, the antiproliferation efficiency result in the data set on MOLT-4 cells (MOLT-4 cells, 48 h, 4 μM) is given as “around 80%”. Further, the “antiproliferative effects (cell viability) IMR-32” value in data set [4] is given as “potential antiproliferative effects”.
